The text below walks through data of PMC11509080, “Discovery of Kuraridin as a Potential Natural Anti-Melanogenic Agent: Focusing on Specific Target Genes and Multidirectional Signaling Pathways” (International Journal of Molecular Sciences, 2024).

In data set [1] the target is T1, tyrosinase (Agaricus bisporus, UniProt C7FF04). Description: Enzyme kinetic analysis of tyrosinase with L-tyrosine (Lineweaver-Burk, Dixon plots). The class given is biochemical. The settings on record: substrate L-tyrosine. The protocol:
(§1) Enzyme kinetics were analyzed using Lineweaver–Burk and Dixon reciprocal plots of the reaction rate and substrate concentration to evaluate the effect of the sample on the affinity of the substrate and enzyme. The tyrosinase concentration was kept constant at 200 U/mL, whereas the substrate (L-tyrosine/L-DOPA) concentration varied between 0.5 and 2.0 mM. The reaction was similar to the anti-tyrosinase assay described above; 100 µL of sample solution was added, followed by 100 µL of tyrosinase (200 units/mL) after incubation at 25 °C. The substrate was then added to the wells and mixed thoroughly, and kinetic measurements of the solution were performed at a wavelength of 475 nm.

Data set [2] has as its target T1, tyrosinase. Description: Enzyme kinetic analysis of tyrosinase with L-DOPA (Lineweaver-Burk, Dixon plots). The class given is biochemical. The following applies: substrate L-DOPA. On the procedure:
as §1

The next data set relates to B16F10 cells. Put plainly: Cellular tyrosinase activity (L-DOPA oxidation) in α-MSH-induced cells. Type of data set: cell-based, Murine. The settings on record: for Intracellular tyrosinase activity: α-MSH-induced B16F10 cells. The protocol: Tyrosinase activity was estimated by measuring the rate of L-DOPA oxidation. […] The cells were washed with cold PBS, and cell lysis buffer was added for lysis at 4 °C for 1 h on ice and centrifuged at 13,000 rpm for 20 min at […] to obtain supernatants. Protein concentration was quantified at 50 µg using a BCA protein assay kit. […] Absorbance was measured at 490 nm using a microplate reader.

In data set [3] the test system is B16F10 melanoma cells. Description: Cellular melanin content (extracellular and intracellular) in α-MSH-induced cells. Type of data set: cell-based, Murine. The protocol: B16F10 melanoma cells (7.4 × 10⁴ cells/well) were seeded in a 6-well plate. […] The extracellular melanin content was measured by direct estimation of the absorbance of the cell-free culture medium at 405 nm. For the measurement of intracellular melanin content, cell pellets were dissolved in 1 N NaOH at 95 °C for 1 h. The absorbance of the resulting solution was measured at 405 nm using a microplate reader [Synergy H(1)].

Data set [4] deals with B16F10 melanoma cells. Put plainly: Cell viability, CCK-8 assay. Type of data set: cell-based, Murine. The following applies: 0.1–5 μM, 72 h. The protocol:
Murine B16F10 melanoma cells (Korean Cell Line Bank, Seoul, Republic of Korea) were cultured in DMEM containing 10% FBS and 1% penicillin-streptomycin at 37 °C in the humidified atmosphere of a 5% CO2 incubator. The cells were cultured until 100% confluent for all experiments.
Cell viability was assessed using the CCK-8 kit. Cells were incubated in 96-well plates at a density of approximately 3 × 10^3 cells/well. After 24 h incubation, a kuraridin concentration (0.1–10 µM) of samples or medium was added to B16F10 cells at 72 h of incubation. Absorbance was monitored at 450 nm using a microplate reader (Synergy H(1), Biotek, VT, USA).

The subject of data set [5] is tyrosinase. Further details: method as in Deri et al. (2016) [15]. The following applies: ref Deri et al. (2016) [15], cited from earlier work.
Setting [6] is: α-MSH-induced B16F10 cells, 0.1–5 μM, dose-dependent.
[7] abbreviates: B16F10 cells, α-MSH stimulation 0.1 μM, 72 h, control = 100%.

T1 sequence (G1K3P4 entry or part of it): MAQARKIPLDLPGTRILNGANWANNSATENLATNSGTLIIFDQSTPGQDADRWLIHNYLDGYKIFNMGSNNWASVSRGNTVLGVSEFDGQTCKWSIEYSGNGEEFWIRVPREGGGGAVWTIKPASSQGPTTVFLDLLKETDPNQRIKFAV
T1 sequence (C7FF04 2-392): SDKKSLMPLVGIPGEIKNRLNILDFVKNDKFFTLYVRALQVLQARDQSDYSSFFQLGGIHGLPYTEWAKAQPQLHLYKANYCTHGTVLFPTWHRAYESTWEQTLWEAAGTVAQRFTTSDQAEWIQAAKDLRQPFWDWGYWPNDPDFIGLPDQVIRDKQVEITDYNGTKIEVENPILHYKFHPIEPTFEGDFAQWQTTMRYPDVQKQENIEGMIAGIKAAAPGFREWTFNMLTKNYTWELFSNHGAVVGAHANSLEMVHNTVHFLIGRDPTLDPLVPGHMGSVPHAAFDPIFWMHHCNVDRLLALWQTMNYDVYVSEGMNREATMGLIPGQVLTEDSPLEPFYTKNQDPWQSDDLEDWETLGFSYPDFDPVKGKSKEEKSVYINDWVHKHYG

Turning to `C=C(C)[C@H](CC=C(C)C)Cc1c(O)cc(O)c2c1O[C@H](c1ccccc1O)CC2=O` [Kushenol A, kushenol A], on tyrosinase [1], the “Inhibition Type L-Tyrosine” value was “Non-competitive”.

As for `C=C(C)[C@H](CC=C(C)C)Cc1c(O)cc(OC)c(C(=O)/C=C/c2ccc(O)cc2O)c1O` [Kuraridin, kuraridin], the “Inhibition Type L-Tyrosine” value on tyrosinase [1] is “Non-competitive”. Moreover, the “Inhibition Type L-DOPA” value at tyrosinase [2] was “Competitive”; on tyrosinase [2] (listed as kuraridin), “competitive inhibition”. The Intracellular tyrosinase activity entry in the data set on B16F10 cells (all tested concentrations (0.1–5 μM), vs α-MSH only, p < 0.001) is reported as “significantly suppressed tyrosinase activity”; in the data set on B16F10 cells (lowest concentration 0.1 μM), “reached control levels”. Moreover, in the data set on B16F10 melanoma cells [3] (setting [6]), the Extracellular melanin production entry was “significantly attenuated”. For the same compound, the Intracellular melanin production result in the data set on B16F10 melanoma cells [3] (setting [6]) was “significantly attenuated”. Moreover, in the data set on B16F10 melanoma cells [3] (α-MSH-treated B16F10 cells, 1 µM), the “Intracellular melanin content lower than the untreated control” value turned out to be 15%. In the data set on B16F10 melanoma cells [4], the “Cytotoxicity (cell viability)” value was “without cytotoxicity”.

For the compound `C=C(C)[C@H](CCC(C)(C)O)Cc1c(O)cc(OC)c2c1O[C@H](c1ccc(O)cc1O)CC2=O` [Kurarinol, kurarinol], the “Inhibition Type L-Tyrosine” value on tyrosinase [1] is given as “Non-competitive”.

“alpha-melanocyte-stimulating hormone [α-MSH, reference compound]”: the “Increase of intracellular tyrosinase activity compared with control group” value in the data set on B16F10 cells (B16F10 cells, α-MSH 100 nM, 72 h) came out at 1.8 fold. For the same compound, in the data set on B16F10 melanoma cells [3] (setting [7]), the Extracellular melanin content entry is given as “approximately 132%” and the Intracellular melanin content is given as roughly 127%.

For the compound `O=c1cc(CO)occ1O` [Kojic acid], the “Inhibition Type L-DOPA” value with tyrosinase [5] (substrate L-DOPA) was “Mixed ^2”. Also, in the data set on tyrosinase [5] (substrate L-tyrosine), the “Inhibition Type L-Tyrosine” value is on record as “Mixed ^2”.
